From patent US20250002475A1 (EPICS THERAPEUTICS, priority 2023, published 2025)

Tests used:
[1] = molecular target: T1, recombinant METTL3/METTL14 complex (Homo sapiens, UniProt Q86U44); experiment: METTL3/14 Scintillation Proximity Assay (SPA), RNA methyltransferase activity; format: biochemical; conditions: 5.31 nM METTL3/14 complex, 250 nM RNA substrate, 1 μM 3H-SAM, 90 min; for compounds marked * best of the two separated forms
T1 construct: purchased Active Motif 311970; host or cells: Sf9 cells
T1 sequence (Q86U44 whole entry): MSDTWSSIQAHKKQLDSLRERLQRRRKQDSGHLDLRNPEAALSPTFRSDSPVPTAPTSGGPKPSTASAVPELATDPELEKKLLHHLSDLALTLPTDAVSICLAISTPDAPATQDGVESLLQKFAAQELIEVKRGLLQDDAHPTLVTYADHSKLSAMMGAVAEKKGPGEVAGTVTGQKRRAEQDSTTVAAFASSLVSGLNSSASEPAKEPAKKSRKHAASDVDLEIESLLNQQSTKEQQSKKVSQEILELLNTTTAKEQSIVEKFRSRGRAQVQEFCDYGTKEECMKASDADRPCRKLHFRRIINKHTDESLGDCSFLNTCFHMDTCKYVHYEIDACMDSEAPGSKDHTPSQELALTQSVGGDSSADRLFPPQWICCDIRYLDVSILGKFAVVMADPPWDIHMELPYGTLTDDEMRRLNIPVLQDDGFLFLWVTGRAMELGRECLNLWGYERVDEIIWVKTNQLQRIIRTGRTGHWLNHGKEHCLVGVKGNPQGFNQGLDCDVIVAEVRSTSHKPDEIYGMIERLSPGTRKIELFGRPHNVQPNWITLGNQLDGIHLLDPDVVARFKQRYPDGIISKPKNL
T1 sequence (Q9HCE5 whole entry partner): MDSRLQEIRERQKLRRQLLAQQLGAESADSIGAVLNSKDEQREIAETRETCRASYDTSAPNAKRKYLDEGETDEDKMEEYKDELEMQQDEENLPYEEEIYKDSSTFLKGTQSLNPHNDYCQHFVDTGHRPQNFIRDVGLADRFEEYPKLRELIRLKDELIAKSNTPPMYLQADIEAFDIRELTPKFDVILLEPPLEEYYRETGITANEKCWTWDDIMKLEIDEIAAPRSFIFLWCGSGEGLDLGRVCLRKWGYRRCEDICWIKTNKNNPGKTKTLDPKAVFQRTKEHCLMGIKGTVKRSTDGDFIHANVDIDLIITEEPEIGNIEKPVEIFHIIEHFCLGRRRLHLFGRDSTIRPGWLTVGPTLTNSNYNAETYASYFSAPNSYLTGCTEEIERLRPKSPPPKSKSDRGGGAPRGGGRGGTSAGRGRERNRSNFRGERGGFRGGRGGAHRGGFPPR

Caov-3 cells = experiment: Caov-3 cellular viability assay (ATP-Lite, 72 h); format: cell-based; conditions: Homo sapiens, ATP-Lite luminescence, % viability relative to DMSO
Method in brief: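 10000 cells/well treated 72 h at 37 °C, 5% CO2, in RPMI-1640 with 10% FBS and 0.1% DMSO final. Viability by ATP-Lite One Step luminescence. Expressed as % of DMSO control, with IC50 from each compound's concentration-response curve.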

Kasumi-1 cells = experiment: Kasumi-1 cellular viability assay (ATP-Lite, 72 h); format: cell-based; conditions: Homo sapiens, ATP-Lite luminescence, % viability relative to DMSO
Method in brief: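 Kasumi-1 AML cells, 15000/well in RPMI-1640 with 10% FBS, were exposed to compound titrations (0.1% final DMSO) for 72 h at 37 °C, 5% CO2. ATP-Lite One Step luminescence gave % viability versus DMSO control, and IC50 came from the concentration-response.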

Row | Structure (SMILES) | IC50 [1] [nM] | IC50 (Caov-3 cells) [nM] | IC50 (Kasumi-1 cells) [nM]
1 | O=C(Nc1cc(=O)n2ccccc2n1)C1(c2ccc(N3CCC[C@@H](NCC4CC(F)(F)C4)C3)cn2)COC1 [Compound 338, (R)-3-(5-(3-(((3,3-difluorocyclobutyl)methyl)amino)piperidin-1-yl)pyridin-2-yl)-N-(4-oxo-4H-pyrido[1,2-a]pyrimidin-2-yl)oxetane-3-carboxamide] | ≤ 50 | ≤ 500 | ≤ 500
2 | O=c1cc(-c2cn(C3(c4ccc(N5CCC[C@@H](NCC6CC6)C5)cn4)COC3)nn2)nc2ccccn12 [Compound 316, (R)-2-(1-(3-(5-(3-((cyclopropylmethyl)amino)piperidin-1-yl)pyridin-2-yl)oxetan-3-yl)-1H-1,2,3-triazol-4-yl)-4H-pyrido[1,2-a]pyrimidin-4-one] | ≤ 50 | 500 to 5000 | 500 to 5000
3 | c1cc(C2(n3cc(-c4cncc(N5CC6(COC6)C5)n4)nn3)COC2)ncc1N1CCC[C@@H](NCC2CC2)C1 [Compound 221, (R)-1-(6-(3-(4-(6-(2-oxa-6-azaspiro[3.3]heptan-6-yl)pyrazin-2-yl)-1H-1,2,3-triazol-1-yl)oxetan-3-yl)pyridin-3-yl)-N-(cyclopropylmethyl)piperidin-3-amine] | ≤ 50 | 500 to 5000 | 500 to 5000
4 | CC(c1cnn(-c2cncc(N(C)C)c2)c1)n1ccc(N2CCC[C@@H](NCC3CCC3)C2)cc1=O (mixture of isomers) [Compound 156, 4-((R)-3-((cyclobutylmethyl)amino)piperidin-1-yl)-1-(1-(1-(5-(dimethylamino)pyridin-3-yl)-1H-pyrazol-4-yl)ethyl)pyridin-2(1H)-one] | ≤ 50 | ≤ 500 | ≤ 500
5 | O=C(Nc1cc(=O)n2ccccc2n1)C1(c2ccc(N3CCC[C@@H](NCC4(F)CC4)C3)cn2)COC1 [Compound 330, (R)-3-(5-(3-(((1-fluorocyclopropyl)methyl)amino)piperidin-1-yl)pyridin-2-yl)-N-(4-oxo-4H-pyrido[1,2-a]pyrimidin-2-yl)oxetane-3-carboxamide] | ≤ 50 | 500 to 5000 | 500 to 5000
6 | O=C(Nc1cc(=O)n2ccccc2n1)C1(c2ccc(N3CCC[C@@H](NCC4CCCC4)C3)cn2)COC1 [Compound 325, (R)-3-(5-(3-((cyclopentylmethyl)amino)piperidin-1-yl)pyridin-2-yl)-N-(4-oxo-4H-pyrido[1,2-a]pyrimidin-2-yl)oxetane-3-carboxamide] | ≤ 50 | ≤ 500 | 500 to 5000
7 | COc1cc(-c2cn(Cn3ncc(N4CCCC(NCC5CCC5)C4)cc3=O)nn2)c2cn[nH]c2c1 (stereo not drawn) [Compound 028, 5-(3-((cyclobutylmethyl)amino)piperidin-1-yl)-2-((4-(6-methoxy-1H-indazol-4-yl)-1H-1,2,3-triazol-1-yl)methyl)pyridazin-3(2H)-one] | ≤ 50 | 500 to 5000 | 500 to 5000
8 | CC(c1ccc(N2CCC[C@@H](NCC34CC(F)(C3)C4)C2)nn1)n1cc(-c2cncc(N3CCCC3)n2)nn1 (stereo partly drawn) [Compound 305, (3R)—N-((3-fluorobicyclo[1.1.1]pentan-1-yl)methyl)-1-(6-(1-(4-(6-(pyrrolidin-1-yl)pyrazin-2-yl)-1H-1,2,3-triazol-1-yl)ethyl)pyridazin-3-yl)piperidin-3-amine] | ≤ 50 | ≤ 500 | ≤ 500
9 | O=C(Nc1cncc(N2CCCC2)c1)C1(c2ccc(N3CCC[C@@H](NCC4CC4)C3)cn2)COC1 [Compound 195, (R)-3-(5-(3-((cyclopropylmethyl)amino)piperidin-1-yl)pyridin-2-yl)-N-(5-(pyrrolidin-1-yl)pyridin-3-yl)oxetane-3-carboxamide] | ≤ 50 | 500 to 5000 | 500 to 5000

Second part, led by results:

Row | IC50 [1] [nM] | Structure (SMILES) | IC50 (Caov-3 cells) [nM] | IC50 (Kasumi-1 cells) [nM]
10 | ≤ 50 | CC(NC(=O)c1cc(=O)n2ccccc2n1)c1ccc(N2CCC[C@@H](NCC3CCC3)C2)nn1 (single isomer, unassigned) [Compound 051] | 500 to 5000 | > 5000
11 | ≤ 50 | CC(n1cc(-c2cncc(N(C)CC(F)(F)F)c2)nn1)n1ccc(N2CCC[C@@H](NCC3CCC3)C2)cc1=O (single isomer, unassigned) [Compound 154] | ≤ 500 | ≤ 500
12 | ≤ 50 | COC1CN(c2cncc(-c3cn(C(C)n4ccc(N5CCC[C@@H](NCC6CC6)C5)cc4=O)nn3)n2)C1 (single isomer, unassigned) [Compound 246] | ≤ 500 | ≤ 500
13 | ≤ 50 | CC(n1nnc(-c2cncc(N(C)C)c2)n1)n1ccc(N2CCC[C@@H](NCC3CCC3)C2)cc1=O (single isomer, unassigned) [Compound 179] | ≤ 500 | ≤ 500
14 | ≤ 50 | CC(c1ccc(N2CCC[C@@H](NCC3CC3)C2)cn1)n1cc(-c2cncc(C3CC3)c2)nn1 (single isomer, unassigned) [Compound 357] | ≤ 500 | ≤ 500
15 | ≤ 50 | CC(c1ccc(N2CCC[C@@H](NCC3CCC3)C2)cn1)n1cc(-c2cncc(N3CCCC3)n2)nn1 (stereo partly drawn) [Compound 280, (3R)—N-(cyclobutylmethyl)-1-(6-(1-(4-(6-(pyrrolidin-1-yl)pyrazin-2-yl)-1H-1,2,3-triazol-1-yl)ethyl)pyridin-3-yl)piperidin-3-amine] | ≤ 500 | ≤ 500
16 | ≤ 50 | COc1cncc(-c2cn(C3(c4ccc(N5CCC[C@@H](NCC6CCC6)C5)cc4)COC3)nn2)c1 [Compound 134, (R)-N-(cyclobutylmethyl)-1-(4-(3-(4-(5-methoxypyridin-3-yl)-1H-1,2,3-triazol-1-yl)oxetan-3-yl)phenyl)piperidin-3-amine] | ≤ 500 | ≤ 500
17 | ≤ 50 | CC(n1cc(-c2cncc(N3CC[C@@H](C)C3)n2)nn1)n1ccc(N2CCC[C@@H](NCC3CC3)C2)cc1=O (single isomer, unassigned) [Compound 238] | ≤ 500 | ≤ 500
18 | ≤ 50 | CCC(NC(=O)c1cc(=O)n2ccccc2n1)c1ccc(N2CCC[C@@H](NCC3CCC3)C2)nn1 (single isomer, unassigned) [Compound 083] | 500 to 5000 | > 5000
19 | ≤ 50 | COc1cncc(-c2cn(Cn3ccc(N4CCC[C@@H](NCC5CCC5)C4)cc3=O)nn2)c1 [Compound 063, (R)-4-(3-((cyclobutylmethyl)amino)piperidin-1-yl)-1-((4-(5-methoxypyridin-3-yl)-1H-1,2,3-triazol-1-yl)methyl)pyridin-2(1H)-one] | 500 to 5000 | 500 to 5000
20 | ≤ 50 | CC(c1ccc(N2CCC[C@@H](NCC3CC3)C2)nn1)n1cnc(-c2cncc(C3CC3)c2)c1 (single isomer, unassigned) [Compound 342] | ≤ 500 | ≤ 500
21 | ≤ 50 | c1ncc(C2CCC2)cc1-c1cn(C2(c3ccc(N4CCC[C@@H](NCC5CC5)C4)cn3)COC2)nn1 [Compound 312, (R)-1-(6-(3-(4-(5-cyclobutylpyridin-3-yl)-1H-1,2,3-triazol-1-yl)oxetan-3-yl)pyridin-3-yl)-N-(cyclopropylmethyl)piperidin-3-amine] | ≤ 500 | ≤ 500
22 | ≤ 50 | CC(n1cc(-c2cncc(N3CCCCC3)c2)nn1)n1ccc(N2CCC[C@@H](NCC3CCC3)C2)cc1=O (single isomer, unassigned) [Compound 178] | ≤ 500 | ≤ 500
